Measured values taken from patent US20250282810A1, “Chemical Synthesis Method and Application of V. Cholerae Serotype O100 O-Antigen Oligosaccharides” (priority 2024, published 2025).

Test system: rabbit serum IgG antibodies
Test: Glycan microarray screening of synthetic oligosaccharides with rabbit serum
Format: binding
Conditions: oligosaccharides printed at 0.1 mM and 0.5 mM, LPS at 1 mg/mL and 5 mg/mL, rabbit serum 1:200, cy3 goat anti-rabbit IgG 1:400
Method: . Then, a microarray spotter was used for printing distribution grids shown in FIG. 9B onto the area of a microarray (9 mm long*9 mm wide), and incubation was performed overnight at room temperature and 65% humidity to covalently bind oligosaccharide fragments to the microarray. After incubation, a mixed solution (pH=9) of […] ethanolamine and […] sodium phosphate was used for processing at 50° C. for 1 h, and then, ultrapure water was used for washing.
The glycan microarray was blocked with a PBS solution containing 3% BSA at room temperature for 1 h. The glycan microarray was washed once with a PBS solution containing 0.1% Tween 20 (PBST solution), washed twice with a PBS solution, and spin-dried, and the glycan microarray was loaded into a 16-well incubator (ProPlate). 120 microliters of rabbit serum sample diluted in a ratio of 1:200 in a PBS solution containing 1% BSA was added to each well, and incubated overnight in a moist chamber at 4° C. in the dark to allow rabbit serum IgG antibodies identifying the synthetic oligosaccharide fragments to bind to the synthetic oligosaccharides on the glycan microarray, and the sample was removed and washed three times with 200 microliters of PBST solution to remove unbound serum IgG antibodies. […]

D-FucNAc [synthetic sugar 6*]
binding ability to IgG antibodies (fluorescence signals): did not bind to antibodies
